Read-outs that look alike come from different tables or passages of the source.
Columns and labels:
[1] = tested on: A2780 ovarian cancer cells and NSCLC cell lines; test: Radiosensitizing effect, summary over cell lines; assay type: cell-based, human; conditions: preincubation, pulse and fractionated irradiation
Description: Exponential growing A2780, SW1573, A549, H460 and SW1573/G-cells were exposed to 1 μM RX-3117 or untreated (control) for 24 h and irradiated with single doses γ-radiation (0-6 Gy) using a ^60Co source (Gammacell 200, Atomic Energy of Canada, Ltd). Subsequently, 500 cells/T25 flasks were plated and allowed to form colonies. After ten days colonies were fixed with 100% ethanol and stained with 10% Giemsa stain solution (Merck Chemicals BV, Amsterdam, the Netherlands) for colonies counting. Plating efficiency (PE) was calculated by dividing the number of colonies formed through the number of cells plated and normalized for cytotoxicity induced by control. To illustrate the effect of RX-3117 on radiation, dose modifying factor (DMF) was calculated as described earlier (Bijnsdorp I V, van den Berg J, Kuipers G K, Wedekind L E, Slotman B J, van Rijn J, Lafleur M V M and Sminia P: Radiosensitizing potential of the selective cyclooygenase-2 (COX-2) inhibitor meloxicam on human glioma cells. J Neurooncol 85: 25-31, 2007).

DNMT1 = test: DNMT enzyme activity in isolated nuclei (DNA methyltransferase assay kit); assay type: cell-based, human; conditions: A2780 nuclear extracts, 1 μM, 24 hr
Description: DNMT1 protein expression was measured by Western Blotting after exposure to RX-3117 for 24 or 48 hr. DNMT1 RNA expression was measured by real-time PCR after 24 and 48 hr exposure to RX-3117. DNMT enzyme activity was measured in isolated nuclei after exposure 1 μM RX-3117 or 5 μM aza-CdR using a DNA methyltransferase assay kit provided by EpiGentek using the ability of a CpG dinding domain to bind to methylated DNA. In A549 cells the effect of 5 μM RX-3117 on overall methylation was measured with a specific antibody against 5-methyl-cytosine. Bands on Western blots were visualized using appropriate InfraRedDye using an Odyssey InfraRed imager.

[2] = First-in-human study: pharmacokinetics, safety and tolerability; assay type: in vivo; conditions: for Cmax / Tmax / half-life / bioavailability: both sexes, human, plasma; for bioavailability: n=3, read-out: absolute bioavailability (F)
Description: In a first-in-human, open-label, exploratory study, the pharmacokinetics, safety and tolerability of RX-3117 were evaluated. The study duration was 14-15 days (7-day screening period; 3-day treatment period; 4 (+1)-day safety follow-up period). Nine adult male and female subjects with histologically confirmed, solid tumors enrolled in and completed the study. The subjects received RX-3117 (n=3 subjects per dose) as a single oral dose (50 mg or 100 mg) or a single intravenous dose (20 mg).

A2780 cells = test: Protein expression by western blot; assay type: cell-based, human; conditions: A2780, 0.1 μM to 10 μM, 48 h
Description: The influence of RX-3117 on protein expression during different treatment conditions was analyzed by western blot. Cells were lysed using 1× cell lysis buffer (Cell Signaling, Danvers, Mass., USA) containing 4% protease inhibitor cocktail (Roche Diagnostics, Mannheim, Germany) on ice for 30 minutes and centrifuged for 10 minutes at 4° C. at 14,000 rpm. Bio-Rad assay was performed to determine protein amount in the collected supernatant as described earlier (Lemos C, Kathmann I, Giovannetti E, Calhau C, Jansen G and Peters G J: Impact of cellular folate status and epidermal growth factor receptor expression on BCRP/ABCG2-mediated resistance to gefitinib and erlotinib. Br J Cancer 100: 1120-7, 2009). The following antibodies were used for protein expression: γH2A.X (cat#9718, Cell Signaling, 1:1000), β-actin (Sigma, 1:10,000), Cdc25C Ser216 (cat#4901, Cell Signaling, 1:1000), Cdk1 Tyr15 (cat#9111, Cell Signaling, 1:1000), […] (cat#2197S, Cell Signaling, 1:1000), Histone 3 (cat#4499, Cell Signaling). Antibodies were diluted in 1:1 solution with Rockland buffer (Rockland Inc, Philadelphia, Pa.) and phosphate buffered saline (PBS) supplemented with 0.05 Tween 20. Proteins were separated in 20% SDS-PAGE gel and transferred to polyvinylidene difluoride (PVDF) membrane. […] Proteins were detected by an Odyssey InfraRed Imager (Li-COR Bioscience, Lincoln, Nebr.).

Compound: Nc1ccn([C@@H]2C(F)=C(CO)[C@@H](O)[C@H]2O)c(=O)n1 [RX-3117, 4-amino-1-((1S,4R,5S)-2-fluoro-4,5-dihydroxy-3-hydroxymethyl-cyclopent-2-enyl)-1H-pyrimidin-2-one]
- dose modifying factors [1]: 1.4-1.8
- inhibition of DNMT1 activity (DNMT1): 32%
- increase of intravenous Cmax over the peak concentrations of the oral doses ([2]; 20 mg intravenous vs 50 and 100 mg oral): ~4 fold
- Cmax ([2]; single intravenous dose 20 mg): 1140 ng/mL
- Tmax ([2]; single intravenous dose 20 mg, read-out: Tmax): 0.25 h
- Cmax ([2]; single oral dose 50 mg): 303 ng/mL
- half-life ([2]; single oral dose 50 mg): 13.9 h
- bioavailability ([2]; single oral dose 50 mg): 55.7%
- Tmax ([2]; single oral dose 50 mg, read-out: mean Tmax): 2.16 h
- Cmax ([2]; single oral dose 100 mg): 311 ng/mL
- half-life ([2]; single oral dose 100 mg): 20.9 h
- bioavailability ([2]; single oral dose 100 mg): 33.4%
- Tmax ([2]; single oral dose 100 mg, read-out: mean Tmax): 2.49 h
- adverse events (AE, TEAE, SAE) ([2]; single 50 or 100 mg oral or 20 mg intravenous dose): No adverse event
- safety and tolerability ([2]; single 50 or 100 mg oral or 20 mg intravenous dose, all subjects): safe and well-tolerated
- γH2A.X S139 induction (A2780 cells): induction of γH2A.X S139 in a dose dependent manner
